The pKi is the Ki on a negative log10 scale, so that one unit is a factor of ten. The pEC50 is the EC50 on a negative log10 scale, so that one unit is a factor of ten. A high value points to a low EC50. A word on the half-life: it is the time needed for the level to fall by half in the phase considered.

The values below come from patent US8846601B2, “Melanocortin receptor-specific peptides” (Palatin Technologies, Inc., priority 2009, dated 2014).

pEC50, pKi: −log10 of the molar value. Like-named read-outs stand apart in the source and are kept apart here. Peptide text beside a SMILES is read from it.

The target of data set [1] is T1, MC1-R (B-16 mouse melanoma cells) (Mus musculus (Mouse), UniProt Q01727). Description: Competitive inhibition binding assay using [I125]-NDP-α-MSH, MC1-R. Here is the method: (§1) A competitive inhibition binding assay is performed using membrane homogenates prepared from HEK-293 cells that express recombinant hMC4-R, hMC3-R, or hMC5-R, and from B-16 mouse melanoma cells (containing endogenous MC1-R). In some instances, HEK-293 cells that express recombinant hMC1-R were employed. In the examples that follow, all MC3-R, MC4-R and MC5-R values are for human recombinant receptors. MC1-R values are for B-16 mouse melanoma cells, unless the heading is “hMC1-R”, in which case the value is for human recombinant MC1-R. Assays were performed in 96 well GF/B Millipore multiscreen filtration plates (MAFB NOB10) pre-coated with 0.5% bovine serum albumin (Fraction V). […] Filters were dried and counted in a gamma counter for bound radioactivity. […] Maximal specific binding (100%) was defined as the difference in radioactivity (cpm) bound to cell membranes in the absence and presence of 1 μM NDP-α-MSH. […] Ki values for test peptides of the present invention were determined using Graph-Pad Prism® curve-fitting software.

The target in data set [2] is T2, hMC4-R (Homo sapiens (Human), UniProt P32245). Kind of data set: Assay for agonist activity: cAMP accumulation in HEK-293 cells that express hMC4-R. The conditions noted are these: for functional status at MC4-R (agonist / partial agonist): agonist = intrinsic activity 70% or higher, partial agonist 10-70%.
Method: By “intrinsic activity” is meant the maximal functional activity achievable by a compound in a specified melanocortin receptor expressing cell system, such as the maximal stimulation of adenylyl cyclase.
Accumulation of intracellular cAMP was examined as a measure of the ability of the peptides of the present invention to elicit a functional response in HEK-293 cells that express MC4-R. Confluent HEK-293 cells that express recombinant hMC4-R were detached from culture plates by incubation in enzyme-free cell dissociation buffer. Dispersed cells were suspended in Earle's Balanced Salt Solution containing 10 mM HEPES (pH 7.5), 1 mM MgCl2, 1 mM glutamine, 0.5% albumin and 0.3 mM 3-isobutyl-1-methyl-xanthine (IBMX), a phosphodiesterase inhibitor. […] Cells were exposed for 15 minutes at 37° C. to peptides of the present invention dissolved in DMSO (final DMSO concentration of 1%) at a concentration range of 0.05-5000 nM in a total assay volume of 200 μL. […] Data analysis was performed by nonlinear regression analysis with Graph-Pad Prism® software. The maximum efficacies of the test peptides of the present invention were compared to that achieved by the reference melanocortin agonist NDP-αMSH.
In data set [3] the target is T1, MC1-R (B-16 mouse melanoma cells). Description: Competitive binding using Eu-labeled NDP-α-MSH, MC1-R. Here is the method: A competitive inhibition binding assay is performed using membrane homogenates prepared from HEK-293 cells that express recombinant hMC4-R, hMC3-R, or hMC5-R, and from B-16 mouse melanoma cells (containing endogenous MC1-R). In some instances, HEK-293 cells that express recombinant hMC1-R were employed. In the examples that follow, all MC3-R, MC4-R and MC5-R values are for human recombinant receptors. MC1-R values are for B-16 mouse melanoma cells, unless the heading is “hMC1-R”, in which case the value is for human recombinant MC1-R. Assays were performed in 96 well GF/B Millipore multiscreen filtration plates (MAFB NOB10) pre-coated with 0.5% bovine serum albumin (Fraction V). Membrane homogenates were incubated with 0.2 nM (for hMC4-R) 0.4 nM (for MC3-R and MC5-R) or 0.1 nM (for mouse B16 MC1-R or hMC1-R) [I^125]-NDP-α-MSH (Perkin Elmer) and increasing concentrations of test peptides of the present invention in buffer containing 25 mM HEPES buffer (pH 7.5) with 100 mM NaCl, 2 mM CaCl2, 2 mM MgCl2, 0.3 mM 1,10-phenanthroline, and 0.2% bovine serum albumin. After incubation for 60 minutes at 37° C., the assay mixture was filtered and the membranes washed three times with ice-cold buffer. Filters were dried and counted in a gamma counter for bound radioactivity. […] Maximal specific binding (100%) was defined as the difference in radioactivity (cpm) bound to cell membranes in the absence and presence of 1 μM NDP-α-MSH. […] Ki values for test peptides of the present invention were determined using Graph-Pad Prism® curve-fitting software.
Alternatively, a competitive inhibition binding assay was performed employing Eu-NDP-α-MSH (PerkinElmer Life Sciences catalog No. AD0225) with determination by time-resolved fluorometry (TRF) of the lanthanide chelate. […] The plates were incubated on a shaker for 15 minutes and read at 340 nm excitation and 615 nm emission wavelengths. […] Ki values were determined by curve-fitting with Graph-Pad Prism® software using a one-site fixed-slope competition binding model.

Data set [4] concerns the target T3, hMC3-R (Homo sapiens (Human), UniProt P41968). Kind of data set: Competitive binding using Eu-labeled NDP-α-MSH, MC3-R. As to the method:
as §1
Alternatively, a competitive inhibition binding assay was performed employing Eu-NDP-α-MSH (PerkinElmer Life Sciences catalog No. AD0225) with determination by time-resolved fluorometry (TRF) of the lanthanide chelate. […] The plates were incubated on a shaker for 15 minutes and read at 340 nm excitation and 615 nm emission wavelengths. […]

The subject of data set [5] is Male Sprague-Dawley rats. Kind of data set: Induction of penile erection in male rats. It is filed as in vivo, rat. The conditions noted are these: for induction of penile erection: male Sprague-Dawley rats, 60 minute observation, No. 154 as trifluoracetic acid salt, No. 155 as acetate salt. An excerpt: Each dose group contained six or seven animals, with video observation for sixty minutes following administration.

Data set [6] deals with Male Sprague-Dawley rats. Description: Rat feeding studies: food intake and body weight change. It counts as in vivo. Conditions: for decrease in food consumption compared to control: rats, 0-2, 0-4 and 0-20 hour periods. As to the method: Change in food intake and body weight was evaluated for selected peptides administered by intravenous (IV) or subcutaneous injection routes. Male Sprague-Dawley rats were obtained from Hilltop Lab Animals, Inc. (Scottsdale, Pa.) or other vendors. Animals were individually housed in conventional polystyrene hanging cages and maintained on a controlled 12 hour on/off light cycle. Water and pelleted food was provided ad libitum. The rats were dosed IV with vehicle or selected peptides (0.3 to 1.0 mg/kg), or dosed subcutaneously with vehicle or selected peptides (doses up to 30 mg/kg). […] The changes in body weight and food intake for the 48 hour and 72 hour periods after dosing can also be measured to determine reversal of changes in body weight and food intake effects back to baseline levels.

For data set [7], the target named is T4, hMC1-R (Homo sapiens (Human), UniProt Q01726). Description: Functional assay (EC50 and intrinsic activity) at hMC1-R. It is filed as cell-based.
The nature of data set [8]: Pharmacokinetic studies, rat model, subcutaneous injection. Conditions: in vivo, sc, formulation as in Section 9.7, read-out: circulation half life (converted).
The target of data set [9] is T4, hMC1-R. Description: Competitive inhibition binding assay, human recombinant MC1-R. As to the method: (§2) A competitive inhibition binding assay is performed using membrane homogenates prepared from HEK-293 cells that express recombinant hMC4-R, hMC3-R, or hMC5-R, and from B-16 mouse melanoma cells (containing endogenous MC1-R). In some instances, HEK-293 cells that express recombinant hMC1-R were employed. In the examples that follow, all MC3-R, MC4-R and MC5-R values are for human recombinant receptors. […] Membrane homogenates were incubated with 0.2 nM (for hMC4-R) 0.4 nM (for MC3-R and MC5-R) or 0.1 nM (for mouse B16 MC1-R or hMC1-R) [I^125]-NDP-α-MSH (Perkin Elmer) and increasing concentrations of test peptides of the present invention in buffer containing 25 mM HEPES buffer (pH 7.5) with 100 mM NaCl, 2 mM CaCl2, 2 mM MgCl2, 0.3 mM 1,10-phenanthroline, and 0.2% bovine serum albumin. After incubation for 60 minutes at 37° C., the assay mixture was filtered and the membranes washed three times with ice-cold buffer. Filters were dried and counted in a gamma counter for bound radioactivity. […] Maximal specific binding (100%) was defined as the difference in radioactivity (cpm) bound to cell membranes in the absence and presence of 1 μM NDP-α-MSH. […] Each assay was conducted in triplicate and the actual mean values are described, with results less than 0% reported as 0%. Ki values for test peptides of the present invention were determined using Graph-Pad Prism® curve-fitting software.

Data set [10] deals with T3, hMC3-R. Description: Competitive inhibition binding assay using [I125]-NDP-α-MSH, MC3-R. As to the method:
as §2

The target in data set [11] is T2, hMC4-R. Kind of data set: Competitive inhibition binding assay using [I125]-NDP-α-MSH, hMC4-R membranes. The essentials: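 Membranes from HEK-293 cells expressing recombinant hMC1-R or hMC4-R incubated with 0.1 nM (MC1-R) or 0.2 nM (MC4-R) [I125]-NDP-α-MSH and increasing peptide concentrations in HEPES pH 7.5, 60 min at 37 °C; filtered, gamma counted.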

T2 sequence (P32245 whole entry): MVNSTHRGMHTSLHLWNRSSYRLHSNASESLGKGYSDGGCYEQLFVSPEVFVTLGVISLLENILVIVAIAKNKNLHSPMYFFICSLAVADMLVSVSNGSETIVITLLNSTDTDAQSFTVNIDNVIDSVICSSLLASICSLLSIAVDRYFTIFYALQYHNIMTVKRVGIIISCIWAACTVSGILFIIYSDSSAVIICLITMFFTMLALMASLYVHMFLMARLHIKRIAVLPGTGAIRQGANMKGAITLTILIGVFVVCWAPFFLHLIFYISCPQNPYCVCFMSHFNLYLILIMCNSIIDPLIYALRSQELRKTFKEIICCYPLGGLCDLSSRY
T1 sequence (Q01727 whole entry): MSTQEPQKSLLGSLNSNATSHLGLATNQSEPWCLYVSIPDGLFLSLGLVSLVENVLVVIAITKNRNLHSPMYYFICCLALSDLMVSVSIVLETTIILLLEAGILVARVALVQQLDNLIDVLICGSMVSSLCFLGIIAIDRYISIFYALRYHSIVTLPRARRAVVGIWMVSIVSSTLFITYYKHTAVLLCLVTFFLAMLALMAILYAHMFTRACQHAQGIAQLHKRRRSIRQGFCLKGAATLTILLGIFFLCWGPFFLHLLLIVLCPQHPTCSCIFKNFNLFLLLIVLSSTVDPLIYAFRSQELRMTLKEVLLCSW
T4 sequence (Q01726 whole entry): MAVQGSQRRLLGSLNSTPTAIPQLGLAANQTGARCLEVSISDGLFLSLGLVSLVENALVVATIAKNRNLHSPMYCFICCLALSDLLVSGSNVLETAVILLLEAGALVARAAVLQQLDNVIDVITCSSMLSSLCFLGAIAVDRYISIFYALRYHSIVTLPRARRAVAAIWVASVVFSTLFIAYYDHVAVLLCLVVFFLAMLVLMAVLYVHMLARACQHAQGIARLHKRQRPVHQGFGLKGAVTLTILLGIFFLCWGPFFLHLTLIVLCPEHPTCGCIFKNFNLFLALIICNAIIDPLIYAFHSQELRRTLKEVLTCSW
T3 sequence (P41968 whole entry): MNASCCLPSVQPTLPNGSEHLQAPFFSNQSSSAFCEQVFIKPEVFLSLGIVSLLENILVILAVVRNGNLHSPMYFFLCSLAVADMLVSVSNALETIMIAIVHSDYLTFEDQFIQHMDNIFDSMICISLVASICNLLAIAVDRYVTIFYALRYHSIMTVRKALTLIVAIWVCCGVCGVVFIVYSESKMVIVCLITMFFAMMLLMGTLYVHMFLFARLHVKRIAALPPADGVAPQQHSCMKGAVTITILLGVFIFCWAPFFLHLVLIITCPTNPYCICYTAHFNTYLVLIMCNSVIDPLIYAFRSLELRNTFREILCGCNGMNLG

For `CC(=O)N[C@@H](CCCNC(=N)N)C(=O)N[C@H]1CC(=O)NCCCC[C@@H](C(N)=O)NC(=O)[C@H](Cc2c[nH]c3ccccc23)NC(=O)[C@H](CCCNC(=N)N)NC(=O)[C@@H](Cc2ccccc2)NC(=O)[C@H](Cc2c[nH]cn2)NC1=O` [Peptide No. 1, Ac-Arg-cyclo(Asp-His- D-Phe-Arg-Trp-Lys)- NH2], the negative logarithm of the Ki (pKi) in data set [1] was 8.52; in data set [3] it was 8.40; in data set [4], 6.99. Besides, the “functional status at MC4-R (agonist / partial agonist)” value in [2] is “agonist”. Besides, in data set [5] (rats, IV, doses of 0.3 or 1 mg/kg), the “observed spontaneous erections compared to vehicle” value was “statistically significant increase”. Also, the “food intake and rate of change in body weight” value in [6] (rat feeding studies, bremelanotide as positive control) is “reduce food intake and decrease the rate of change in body weight”. The “decrease in food consumption compared to control” value in [6] (0.3 mg/kg) and in data set [6] (1 mg/kg) was “statistically significant” each time.
In data set [7], `CC(=O)N[C@@H](CCCNC(=N)N)C(=O)N[C@H]1CCCNC(=O)CC[C@@H](C(N)=O)NC(=O)[C@H](Cc2c[nH]c3ccccc23)NC(=O)[C@H](CCCNC(=N)N)NC(=O)[C@@H](Cc2ccccc2)NC(=O)[C@H](CC(N)=O)NC1=O` [compound 154, Ac-Arg-cyclo(Orn-Asn- D-Phe-Arg-Trp-Glu)- NH2] showed a pEC50 of 7.60. Moreover, in [8], the half-life is approximately 42 min. Besides, the “induction of penile erection” value in data set [5] (subcutaneous) is “robustly induce a penile erection”. Moreover, the pKi in [9] is 6.16.
`CC(=O)N[C@@H](CCCNC(=N)N)C(=O)N[C@H]1CC(=O)NCCCC[C@@H](C(N)=O)NC(=O)[C@H](Cc2c[nH]c3ccccc23)NC(=O)[C@H](CCCNC(=N)N)NC(=O)[C@@H](Cc2ccccc2)NC(=O)[C@H](CCC(N)=O)NC1=O` [Peptide No. 32, Ac-Arg-cyclo(Asp-Gln- D-Phe-Arg-Trp-Lys)- NH2]: the negative logarithm of the Ki (pKi) in data set [1] is 6.88; in data set [10], 6.47; in data set [3], 6.17. Besides, the “functional status at MC4-R (agonist / partial agonist)” value in [2] is recorded as “agonist”. Moreover, the observed spontaneous erections entry in data set [5] (rats, subcutaneous, doses of 1, 3 or 10 mg/kg) was “increase in observed spontaneous erections”.
Regarding `CC(=O)N[C@@H](CCCNC(=N)N)C(=O)N[C@H]1CCCCNC(=O)C[C@@H](C(N)=O)NC(=O)[C@H](Cc2c[nH]c3ccccc23)NC(=O)[C@H](CCCNC(=N)N)NC(=O)[C@@H](Cc2ccccc2)NC(=O)[C@H](CC(N)=O)NC1=O` [compound 155, Ac-Arg-cyclo(Lys-Asn- D-Phe-Arg-Trp-Asp)- NH2] (HELM PEPTIDE1{[ac].R.K.N.[dF].R.W.D.[am]}$PEPTIDE1,PEPTIDE1,3:R3-8:R3$$$V2.0), the negative logarithm of the EC50 (pEC50) in data set [7] is 7.85; in data set [2], 9.72. Further, the pKi is 8.30 in [11] (averaged, [I125]-NDP-α-MSH (values not marked *), read-out: MC4-R Ki); 8.30 in data set [11] (read-out: hMC4-R (Ki)); 6.62 in [9]. Besides, in data set [8], the half-life is approximately 42 min. Further, in [5] (subcutaneous), the “induction of penile erection” value is recorded as “robustly induce a penile erection”.
